Measured values reported in patent publication US9738634B2, “Heterocyclic amide compound and herbicide” (SYNGENTA PARTICIPATIONS AG, priority 2013, dated 2017).

Columns and labels:
Assay type in all cases: in vivo
birds-eye speedwell = assay: Test Example 3: weedkilling efficacy through soil treatment; p: birds-eye speedwell; details: soil treatment, treatment dosage 320 g/ha
Method in brief: (§1)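 Crop and weed responses were judged three weeks after a uniform surface spray of the water-diluted emulsion at the given g/ha rate. Seeds sat beneath about 1.5 cm of sterilized diluvial soil, and boxes stood in a greenhouse at 25 to 30° C.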

beet = assay: Test Example 3: soil treatment, effect on crop; f: beet; details: soil treatment, treatment dosage 320 g/ha
Method in brief: as §1

bulrush [1] = assay: Test Example 2: weedkilling efficacy, growth period weed treatment in the submerged state; B: bulrush; details: treatment dosage 320 g/ha
Method in brief: (§2)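 Barnyard grass, bulrush and oval-leafed pondweed sown in alluvial soil under 4 cm flooding, greenhouse 25 to 30° C. At 1-2 leaf stage, water-diluted emulsion applied to the water surface at stated g/ha dosages; effects scored 3 weeks later.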

wheat = assay: Test Example 3: soil treatment, effect on crop; e: wheat; details: soil treatment, treatment dosage 320 g/ha
Method in brief: as §1

soybean = assay: Test Example 3: soil treatment, effect on crop; d: soybean; details: soil treatment, treatment dosage 320 g/ha
Method in brief: as §1

fig-leafed goosefoot = assay: Test Example 3: weedkilling efficacy through soil treatment; M: fig-leafed goosefoot; details: soil treatment, treatment dosage 320 g/ha
Method in brief: as §1

chickweed = assay: Test Example 3: weedkilling efficacy through soil treatment; N: chickweed; details: soil treatment, treatment dosage 320 g/ha
Method in brief: as §1

barnyard grass [2] = assay: Test Example 2: weedkilling efficacy, growth period weed treatment in the submerged state; A: barnyard grass; details: treatment dosage 320 g/ha
Method in brief: as §2

common wind-grass = assay: Test Example 3: weedkilling efficacy through soil treatment; J: common wind-grass; details: soil treatment, treatment dosage 320 g/ha
Method in brief: as §1

bulrush [3] = assay: Test Example 1: weedkilling efficacy, preemergent weed treatment in the submerged state; B: bulrush; details: treatment dosage 320 g/ha
Method in brief: (§3)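 Visual scores against set criteria were taken 3 weeks after treatment. Compounds, as diluted emulsions at specified g/ha, went onto the water surface of 4 cm-flooded alluvial soil pots on the day weeds were sown and 2.5-leaf rice was transplanted; greenhouse held 25–30 °C.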

crabgrass = assay: Test Example 3: weedkilling efficacy through soil treatment; D: crabgrass; details: soil treatment, treatment dosage 320 g/ha
Method in brief: as §1

barnyard grass [4] = assay: Test Example 3: weedkilling efficacy through soil treatment; F: barnyard grass; details: soil treatment, treatment dosage 320 g/ha
Method in brief: as §1

green foxtail = assay: Test Example 3: weedkilling efficacy through soil treatment; E: green foxtail; details: soil treatment, treatment dosage 320 g/ha
Method in brief: as §1

rapeseed = assay: Test Example 3: soil treatment, effect on crop; g: rapeseed; details: soil treatment, treatment dosage 320 g/ha
Method in brief: as §1

Indian mallow = assay: Test Example 3: weedkilling efficacy through soil treatment; K: Indian mallow; details: soil treatment, treatment dosage 320 g/ha
Method in brief: as §1

corn = assay: Test Example 3: soil treatment, effect on crop; c: corn; details: soil treatment, treatment dosage 320 g/ha
Method in brief: as §1

redroot pigweed = assay: Test Example 3: weedkilling efficacy through soil treatment; L: redroot pigweed; details: soil treatment, treatment dosage 320 g/ha
Method in brief: as §1

black-grass = assay: Test Example 3: weedkilling efficacy through soil treatment; H: black-grass; details: soil treatment, treatment dosage 320 g/ha
Method in brief: as §1

oval-leafed pondweed [5] = assay: Test Example 1: weedkilling efficacy, preemergent weed treatment in the submerged state; C: oval-leafed pondweed; details: treatment dosage 320 g/ha
Method in brief: as §3

transplanted rice = assay: Test Example 1: preemergent weed treatment in the submerged state, effect on crop; a: transplanted rice; details: treatment dosage 320 g/ha
Method in brief: as §3

catchweed = assay: Test Example 3: weedkilling efficacy through soil treatment; O: catchweed; details: soil treatment, treatment dosage 320 g/ha
Method in brief: as §1

Italian ryegrass = assay: Test Example 3: weedkilling efficacy through soil treatment; I: Italian ryegrass; details: soil treatment, treatment dosage 320 g/ha
Method in brief: as §1

directly sown rice = assay: Test Example 3: soil treatment, effect on crop; b: directly sown rice; details: soil treatment, treatment dosage 320 g/ha
Method in brief: as §1

barnyard grass [6] = assay: Test Example 1: weedkilling efficacy, preemergent weed treatment in the submerged state; A: barnyard grass; details: treatment dosage 320 g/ha
Method in brief: as §3

wild oat = assay: Test Example 3: weedkilling efficacy through soil treatment; G: wild oat; details: soil treatment, treatment dosage 320 g/ha
Method in brief: as §1

oval-leafed pondweed [7] = assay: Test Example 2: weedkilling efficacy, growth period weed treatment in the submerged state; C: oval-leafed pondweed; details: treatment dosage 320 g/ha
Method in brief: as §2

CC(C)(C(=O)Nc1cc(C(F)F)ccn1)N1COCN(c2ccccc2)C1=O [A-2-40]
P: birds-eye speedwell, weedkilling efficacy grade (birds-eye speedwell): 5 (weed kill ratio 90% or more, (practically complete withering))
f: beet, effect on crop grade (beet): 4 (weed kill ratio 70% or more, less than 90%)
B (bulrush) weedkilling efficacy grade (bulrush [1]): 5 (weed kill ratio 90% or more, (practically complete withering))
e: wheat, effect on crop grade (wheat): 1 (weed kill ratio 5% or more, less than 20%)
d: soybean, effect on crop grade (soybean): 3 (weed kill ratio 40% or more, less than 70%)
M: fig-leafed goosefoot, weedkilling efficacy grade (fig-leafed goosefoot): 4 (weed kill ratio 70% or more, less than 90%)
N: chickweed, weedkilling efficacy grade (chickweed): 4 (weed kill ratio 70% or more, less than 90%)
A (barnyard grass) weedkilling efficacy grade (barnyard grass [2]): 5 (weed kill ratio 90% or more, (practically complete withering))
J: common wind-grass, weedkilling efficacy grade (common wind-grass): 5 (weed kill ratio 90% or more, (practically complete withering))
B: bulrush, weed kill grade (bulrush [3]): 5 (weed kill ratio 90% or more, (practically complete withering))
D: crabgrass, weedkilling efficacy grade (crabgrass): 5 (weed kill ratio 90% or more, (practically complete withering))
F: barnyard grass, weedkilling efficacy grade (barnyard grass [4]): 5 (weed kill ratio 90% or more, (practically complete withering))
E: green foxtail, weedkilling efficacy grade (green foxtail): 5 (weed kill ratio 90% or more, (practically complete withering))
g: rapeseed, effect on crop grade (rapeseed): 4 (weed kill ratio 70% or more, less than 90%)
K: Indian mallow, weedkilling efficacy grade (Indian mallow): 4 (weed kill ratio 70% or more, less than 90%)
c: corn, effect on crop grade (corn): 2 (weed kill ratio 20% or more, less than 40%)
L: redroot pigweed, weedkilling efficacy grade (redroot pigweed): 4 (weed kill ratio 70% or more, less than 90%)
H: black-grass, weedkilling efficacy grade (black-grass): 5 (weed kill ratio 90% or more, (practically complete withering))
C: oval-leafed pondweed, weed kill grade (oval-leafed pondweed [5]): 5 (weed kill ratio 90% or more, (practically complete withering))
a: transplanted rice, effect on crop grade (transplanted rice): 1 (weed kill ratio 5% or more, less than 20%)
O: catchweed, weedkilling efficacy grade (catchweed): 5 (weed kill ratio 90% or more, (practically complete withering))
I: Italian ryegrass, weedkilling efficacy grade (Italian ryegrass): 5 (weed kill ratio 90% or more, (practically complete withering))
b: directly sown rice, effect on crop grade (directly sown rice): 5 (weed kill ratio 90% or more, (practically complete withering))
A: barnyard grass, weed kill grade (barnyard grass [6]): 5 (weed kill ratio 90% or more, (practically complete withering))
G: wild oat, weedkilling efficacy grade (wild oat): 5 (weed kill ratio 90% or more, (practically complete withering))
C (oval-leafed pondweed) weedkilling efficacy grade (oval-leafed pondweed [7]): 5 (weed kill ratio 90% or more, (practically complete withering))
